Experimental data published in ChEMBL document CHEMBL1177794, “Broad spectrum alkynyl inhibitors of T315I Bcr-Abl” (Bioorg Med Chem Lett, 2010).

Tests used:
[1] = biological target: MAP kinase-activated protein kinase 2 (Homo sapiens) (UniProt P49137); experiment: Inhibition of MAPKAPK2 at 10 uM; details: values are per cent of control
[2] = biological target: Serine/threonine-protein kinase 17A (Homo sapiens) (UniProt Q9UEE5); experiment: Inhibition of DRAK1 at 10 uM; values are per cent of control
[3] = tested on: Phosphatidylinositol 4,5-bisphosphate 3-kinase catalytic subunit alpha isoform (Homo sapiens), P42336 [C420R]; experiment: Inhibition of PIK3CA C420R mutant at 10 uM
[4] = biological target: Serine/threonine-protein kinase 38 (Homo sapiens) (UniProt Q15208); experiment: Inhibition of NDR1 at 10 uM
[5] = biological target: Tyrosine-protein kinase Srms (Homo sapiens) (UniProt Q9H3Y6); experiment: Inhibition of SRMS at 10 uM
[6] = biological target: Ribosomal protein S6 kinase beta-1 (Homo sapiens) (UniProt P23443); experiment: Inhibition of S6K1 at 10 uM
[7] = biological target: Serine/threonine-protein kinase 3 (Homo sapiens) (UniProt Q13188); experiment: Inhibition of MST2 at 10 uM
[8] = tested on: Tyrosine-protein kinase ABL1 (Homo sapiens), P00519 [F317I]; experiment: Inhibition of phosphorylated ABL1 F317I mutant at 10 uM; details: values are per cent of control
[9] = biological target: Interleukin-1 receptor-associated kinase 4 (Homo sapiens) (UniProt Q9NWZ3); experiment: Inhibition of IRAK4 at 10 uM; values are per cent of control
[10] = biological target: Activin receptor type-1-like (Homo sapiens) (UniProt P37023); experiment: Inhibition of ACVRL1 at 10 uM; details: values are per cent of control
[11] = biological target: Serine/threonine-protein kinase Nek2 (Homo sapiens) (UniProt P51955); experiment: Inhibition of NEK2 at 10 uM
[12] = biological target: Protein kinase C iota type (Homo sapiens) (UniProt P41743); experiment: Inhibition of PRKCI at 10 uM
[13] = biological target: Mitogen-activated protein kinase kinase kinase 10 (Homo sapiens) (UniProt Q02779); experiment: Inhibition of MLK2 at 10 uM
[14] = tested on: Tyrosine-protein kinase ABL1 (Homo sapiens), P00519 [F317L]; experiment: Inhibition of non phosphorylated ABL1 F317L mutant at 10 uM; details: values are per cent of control
[15] = biological target: Phosphatidylinositol 4,5-bisphosphate 3-kinase catalytic subunit delta isoform (Homo sapiens) (UniProt O00329); experiment: Inhibition of PIK3CD at 10 uM
[16] = biological target: Tyrosine-protein kinase Fes/Fps (Homo sapiens) (UniProt P07332); experiment: Inhibition of FES at 10 uM; details: values are per cent of control
[17] = biological target: Cyclin-dependent kinase 4/cyclin D1 (Homo sapiens) (UniProt P11802+P24385); experiment: Inhibition of CDK4/cyclin D1 at 10 uM; values are per cent of control
[18] = biological target: Focal adhesion kinase 1 (Homo sapiens) (UniProt Q05397); experiment: Inhibition of FAK at 10 uM; details: values are per cent of control
[19] = biological target: Ephrin type-B receptor 4 (Homo sapiens) (UniProt P54760); experiment: Inhibition of EPHB4 at 10 uM; details: values are per cent of control
[20] = biological target: Serine/threonine-protein kinase MARK2 (Homo sapiens) (UniProt Q7KZI7); experiment: Inhibition of MARK2 at 10 uM; details: values are per cent of control
[21] = biological target: Tyrosine-protein kinase Fyn (Homo sapiens) (UniProt P06241); experiment: Inhibition of FYN at 10 uM; values are per cent of control
[22] = biological target: Dual specificity protein kinase CLK3 (Homo sapiens) (UniProt P49761); experiment: Inhibition of CLK3 at 10 uM; details: values are per cent of control
[23] = biological target: Receptor-interacting serine/threonine-protein kinase 1 (Homo sapiens) (UniProt Q13546); experiment: Inhibition of RIPK1 at 10 uM; details: values are per cent of control
[24] = biological target: Fibroblast growth factor receptor 2 (Homo sapiens) (UniProt P21802); experiment: Inhibition of FGFR2 at 10 uM; details: values are per cent of control
[25] = biological target: Serine/threonine-protein kinase MRCK beta (Homo sapiens) (UniProt Q9Y5S2); experiment: Inhibition of MRCKB at 10 uM
[26] = biological target: Ribosomal protein S6 kinase alpha-6 (Homo sapiens) (UniProt Q9UK32); experiment: Inhibition of RSK4 N-terminal domain1 at 10 uM
[27] = biological target: Serine/threonine-protein kinase VRK2 (Homo sapiens) (UniProt Q86Y07); experiment: Inhibition of VRK2 at 10 uM; details: values are per cent of control
[28] = biological target: Serine/threonine-protein kinase MRCK gamma (Homo sapiens) (UniProt Q6DT37); experiment: Inhibition of DMPK2 at 10 uM; details: values are per cent of control
[29] = biological target: Phosphatidylinositol 4,5-bisphosphate 3-kinase catalytic subunit beta isoform (Homo sapiens) (UniProt P42338); experiment: Inhibition of PIK3CB at 10 uM
[30] = biological target: Membrane-associated tyrosine- and threonine-specific cdc2-inhibitory kinase (Homo sapiens) (UniProt Q99640); experiment: Inhibition of PKMYT1 at 10 uM
[31] = biological target: Atypical kinase COQ8A, mitochondrial (Homo sapiens) (UniProt Q8NI60); experiment: Inhibition of ADCK3 at 10 uM; details: values are per cent of control
[32] = biological target: 5'-AMP-activated protein kinase catalytic subunit alpha-2 (Homo sapiens) (UniProt P54646); experiment: Inhibition of AMPK-alpha2 at 10 uM; details: values are per cent of control
[33] = biological target: Dual specificity protein kinase CLK4 (Homo sapiens) (UniProt Q9HAZ1); experiment: Inhibition of CLK4 at 10 uM; details: values are per cent of control
[34] = biological target: Serine/threonine-protein kinase D2 (Homo sapiens) (UniProt Q9BZL6); experiment: Inhibition of PRKD2 at 10 uM
[35] = biological target: Proto-oncogene tyrosine-protein kinase ROS (Homo sapiens) (UniProt P08922); experiment: Inhibition of ROS1 at 10 uM
[36] = biological target: Serine/threonine-protein kinase TAO2 (Homo sapiens) (UniProt Q9UL54); experiment: Inhibition of TAOK2 at 10 uM
[37] = biological target: Ribosomal protein S6 kinase alpha-5 (Homo sapiens) (UniProt O75582); experiment: Inhibition of RPS6KA5 C-terminal domain2 at 10 uM
[38] = biological target: Serine/threonine-protein kinase PLK4 (Homo sapiens) (UniProt O00444); experiment: Inhibition of PLK4 at 10 uM
[39] = biological target: Cyclin-dependent kinase 9 (Homo sapiens) (UniProt P50750); experiment: Inhibition of CDK9 at 10 uM; values are per cent of control
[40] = biological target: Serine/threonine-protein kinase Nek9 (Homo sapiens) (UniProt Q8TD19); experiment: Inhibition of NEK9 at 10 uM
[41] = biological target: Cyclin-G-associated kinase (Homo sapiens) (UniProt O14976); experiment: Inhibition of GAK at 10 uM; details: values are per cent of control
[42] = biological target: Mitogen-activated protein kinase kinase kinase 2 (Homo sapiens) (UniProt Q9Y2U5); experiment: Inhibition of MAP3K2 at 10 uM; details: values are per cent of control
[43] = Inhibition of FLT3 ITD mutant at 10 uM; details: values are per cent of control
[44] = biological target: Protein-tyrosine kinase 2-beta (Homo sapiens) (UniProt Q14289); experiment: Inhibition of PYK2 at 10 uM; details: values are per cent of control

Chain of Serine/threonine-protein kinase Nek9 (Homo sapiens) (Q8TD19 whole entry): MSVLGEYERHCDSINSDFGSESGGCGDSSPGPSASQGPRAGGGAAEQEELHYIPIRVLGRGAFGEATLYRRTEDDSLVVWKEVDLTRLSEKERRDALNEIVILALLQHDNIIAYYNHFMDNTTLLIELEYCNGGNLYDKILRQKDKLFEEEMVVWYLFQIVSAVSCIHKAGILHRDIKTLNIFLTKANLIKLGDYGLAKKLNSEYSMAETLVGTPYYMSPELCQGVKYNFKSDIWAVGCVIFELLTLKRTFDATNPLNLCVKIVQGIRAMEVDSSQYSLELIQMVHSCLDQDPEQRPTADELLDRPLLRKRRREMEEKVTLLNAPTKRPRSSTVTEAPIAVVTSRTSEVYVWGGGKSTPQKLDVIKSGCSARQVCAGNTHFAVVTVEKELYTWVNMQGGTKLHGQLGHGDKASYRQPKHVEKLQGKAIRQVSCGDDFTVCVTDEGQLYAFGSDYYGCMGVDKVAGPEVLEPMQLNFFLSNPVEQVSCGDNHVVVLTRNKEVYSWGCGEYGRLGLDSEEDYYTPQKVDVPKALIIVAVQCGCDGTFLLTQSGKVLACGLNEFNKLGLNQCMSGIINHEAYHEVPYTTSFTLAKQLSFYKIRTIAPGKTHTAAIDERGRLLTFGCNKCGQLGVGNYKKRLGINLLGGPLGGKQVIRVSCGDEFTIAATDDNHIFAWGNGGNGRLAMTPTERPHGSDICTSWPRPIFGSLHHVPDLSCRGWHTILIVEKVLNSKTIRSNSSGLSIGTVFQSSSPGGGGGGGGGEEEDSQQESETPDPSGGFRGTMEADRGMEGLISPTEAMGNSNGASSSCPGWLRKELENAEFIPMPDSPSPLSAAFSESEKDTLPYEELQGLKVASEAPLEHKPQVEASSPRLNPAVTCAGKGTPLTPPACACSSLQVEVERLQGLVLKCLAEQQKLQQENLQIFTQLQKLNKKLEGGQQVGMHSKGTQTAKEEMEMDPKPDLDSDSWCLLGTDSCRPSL
Chain of Serine/threonine-protein kinase 3 (Homo sapiens) (Q13188 whole entry): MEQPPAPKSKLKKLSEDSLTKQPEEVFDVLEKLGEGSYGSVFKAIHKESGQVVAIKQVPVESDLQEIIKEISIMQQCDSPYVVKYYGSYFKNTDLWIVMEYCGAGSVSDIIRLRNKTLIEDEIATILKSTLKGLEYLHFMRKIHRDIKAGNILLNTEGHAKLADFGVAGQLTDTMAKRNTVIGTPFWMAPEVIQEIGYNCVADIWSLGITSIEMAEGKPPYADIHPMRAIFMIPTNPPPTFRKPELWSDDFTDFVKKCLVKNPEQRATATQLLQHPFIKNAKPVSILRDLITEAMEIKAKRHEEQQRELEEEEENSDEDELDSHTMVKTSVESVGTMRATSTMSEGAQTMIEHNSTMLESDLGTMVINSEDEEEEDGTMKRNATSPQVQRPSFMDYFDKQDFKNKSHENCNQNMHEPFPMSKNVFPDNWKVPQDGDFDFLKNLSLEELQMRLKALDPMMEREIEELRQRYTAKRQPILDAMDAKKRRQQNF
Chain of Serine/threonine-protein kinase MRCK beta (Homo sapiens) (Q9Y5S2 whole entry, the tested form may be a part): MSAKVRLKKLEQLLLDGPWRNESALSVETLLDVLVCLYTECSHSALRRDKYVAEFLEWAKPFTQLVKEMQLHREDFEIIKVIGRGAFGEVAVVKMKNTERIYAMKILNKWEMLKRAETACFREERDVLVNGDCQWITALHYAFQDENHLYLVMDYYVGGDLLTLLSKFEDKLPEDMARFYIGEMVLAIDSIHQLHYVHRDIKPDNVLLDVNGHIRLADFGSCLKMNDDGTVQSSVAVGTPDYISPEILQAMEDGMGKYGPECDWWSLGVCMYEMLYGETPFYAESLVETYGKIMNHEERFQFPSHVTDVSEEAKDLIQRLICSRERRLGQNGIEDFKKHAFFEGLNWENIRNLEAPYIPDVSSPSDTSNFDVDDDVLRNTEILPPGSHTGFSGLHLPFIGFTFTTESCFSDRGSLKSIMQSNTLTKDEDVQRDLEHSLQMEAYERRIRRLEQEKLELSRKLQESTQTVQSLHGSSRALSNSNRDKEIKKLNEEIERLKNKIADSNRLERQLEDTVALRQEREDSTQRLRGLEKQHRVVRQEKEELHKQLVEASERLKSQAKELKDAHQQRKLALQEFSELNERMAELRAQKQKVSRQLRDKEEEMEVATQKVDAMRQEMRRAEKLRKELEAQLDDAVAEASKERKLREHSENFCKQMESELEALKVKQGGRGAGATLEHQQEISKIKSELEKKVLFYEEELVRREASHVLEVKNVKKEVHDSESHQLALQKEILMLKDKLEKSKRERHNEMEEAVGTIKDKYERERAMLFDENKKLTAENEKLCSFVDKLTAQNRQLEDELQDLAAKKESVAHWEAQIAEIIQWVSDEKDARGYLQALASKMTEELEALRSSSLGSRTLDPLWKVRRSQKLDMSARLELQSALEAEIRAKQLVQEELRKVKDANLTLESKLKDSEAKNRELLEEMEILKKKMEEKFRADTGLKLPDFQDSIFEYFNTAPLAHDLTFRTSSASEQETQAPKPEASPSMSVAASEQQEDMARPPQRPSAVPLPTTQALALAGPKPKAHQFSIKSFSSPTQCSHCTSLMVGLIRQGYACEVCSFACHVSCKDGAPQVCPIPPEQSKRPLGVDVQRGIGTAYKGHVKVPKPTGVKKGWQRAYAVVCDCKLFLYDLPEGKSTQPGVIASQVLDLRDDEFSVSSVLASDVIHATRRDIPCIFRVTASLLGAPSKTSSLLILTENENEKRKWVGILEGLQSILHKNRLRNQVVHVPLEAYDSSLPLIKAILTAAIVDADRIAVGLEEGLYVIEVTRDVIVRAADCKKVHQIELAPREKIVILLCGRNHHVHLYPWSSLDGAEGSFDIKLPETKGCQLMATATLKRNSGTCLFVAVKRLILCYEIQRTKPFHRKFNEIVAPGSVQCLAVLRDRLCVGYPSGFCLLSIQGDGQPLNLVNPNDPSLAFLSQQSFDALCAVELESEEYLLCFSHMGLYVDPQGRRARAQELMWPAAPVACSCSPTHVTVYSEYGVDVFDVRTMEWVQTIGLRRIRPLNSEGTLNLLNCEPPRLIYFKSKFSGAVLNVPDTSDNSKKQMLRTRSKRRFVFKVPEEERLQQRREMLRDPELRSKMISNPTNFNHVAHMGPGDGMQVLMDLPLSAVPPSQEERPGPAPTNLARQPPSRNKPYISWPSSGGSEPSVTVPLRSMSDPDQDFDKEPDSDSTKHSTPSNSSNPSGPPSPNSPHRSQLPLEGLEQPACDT
Chain of Serine/threonine-protein kinase 38 (Homo sapiens) (Q15208 2-465 limits assumed): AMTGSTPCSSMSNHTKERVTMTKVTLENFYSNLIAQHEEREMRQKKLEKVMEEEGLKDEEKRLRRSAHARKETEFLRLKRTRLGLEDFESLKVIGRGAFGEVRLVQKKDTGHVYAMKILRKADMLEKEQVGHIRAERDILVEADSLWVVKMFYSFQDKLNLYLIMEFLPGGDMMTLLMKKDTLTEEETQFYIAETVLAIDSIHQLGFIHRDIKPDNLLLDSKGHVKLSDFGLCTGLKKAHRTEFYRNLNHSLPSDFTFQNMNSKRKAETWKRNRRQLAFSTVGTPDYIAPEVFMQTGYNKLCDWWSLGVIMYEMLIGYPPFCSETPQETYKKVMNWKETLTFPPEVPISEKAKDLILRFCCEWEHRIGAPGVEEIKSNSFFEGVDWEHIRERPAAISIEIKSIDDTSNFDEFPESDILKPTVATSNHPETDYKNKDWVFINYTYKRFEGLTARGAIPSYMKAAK
Chain of Serine/threonine-protein kinase D2 (Homo sapiens) (Q9BZL6 whole entry): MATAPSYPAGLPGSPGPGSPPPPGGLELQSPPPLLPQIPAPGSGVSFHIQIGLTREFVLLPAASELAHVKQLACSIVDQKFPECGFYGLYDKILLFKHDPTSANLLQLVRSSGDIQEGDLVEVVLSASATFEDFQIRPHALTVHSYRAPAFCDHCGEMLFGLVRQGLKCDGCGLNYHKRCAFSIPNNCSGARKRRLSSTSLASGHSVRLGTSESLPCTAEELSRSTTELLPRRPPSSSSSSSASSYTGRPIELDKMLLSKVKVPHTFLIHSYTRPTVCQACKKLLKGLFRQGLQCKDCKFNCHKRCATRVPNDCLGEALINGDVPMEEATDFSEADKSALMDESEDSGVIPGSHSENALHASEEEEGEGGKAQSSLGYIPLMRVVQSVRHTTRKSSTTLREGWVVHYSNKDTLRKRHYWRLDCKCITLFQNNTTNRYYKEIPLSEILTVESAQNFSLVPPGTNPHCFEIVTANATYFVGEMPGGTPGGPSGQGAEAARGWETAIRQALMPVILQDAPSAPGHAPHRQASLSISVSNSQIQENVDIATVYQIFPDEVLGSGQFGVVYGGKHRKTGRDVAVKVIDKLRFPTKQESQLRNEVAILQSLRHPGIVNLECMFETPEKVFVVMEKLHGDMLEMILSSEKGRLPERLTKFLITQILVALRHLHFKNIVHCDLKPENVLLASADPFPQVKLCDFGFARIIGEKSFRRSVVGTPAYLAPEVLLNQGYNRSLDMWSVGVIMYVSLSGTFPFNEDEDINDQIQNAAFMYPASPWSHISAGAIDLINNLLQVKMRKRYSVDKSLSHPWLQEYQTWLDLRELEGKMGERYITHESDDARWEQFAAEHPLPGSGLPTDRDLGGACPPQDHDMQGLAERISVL
Chain of MAP kinase-activated protein kinase 2 (Homo sapiens) (P49137 whole entry, looked up): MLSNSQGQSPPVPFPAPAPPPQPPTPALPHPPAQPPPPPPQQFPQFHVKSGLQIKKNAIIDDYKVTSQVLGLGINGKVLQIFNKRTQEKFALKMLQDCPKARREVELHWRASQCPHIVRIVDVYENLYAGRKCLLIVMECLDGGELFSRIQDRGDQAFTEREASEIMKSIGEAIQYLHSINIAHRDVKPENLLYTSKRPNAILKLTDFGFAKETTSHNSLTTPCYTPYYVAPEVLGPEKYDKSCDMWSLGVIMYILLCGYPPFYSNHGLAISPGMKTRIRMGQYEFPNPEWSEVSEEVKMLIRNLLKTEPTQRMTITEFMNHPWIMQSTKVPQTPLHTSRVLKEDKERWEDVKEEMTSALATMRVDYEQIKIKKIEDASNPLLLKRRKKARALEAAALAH

CCN1CCN(Cc2ccc(NC(=O)c3ccc(C)c(C#Cc4cnc5[nH]ccc5c4)c3)cc2C(F)(F)F)CC1
residual binding, % of control [1]: 100%
% of control [2]: 24%
inhibition [3]: 95%
inhibition [4]: 33%
inhibition [5]: 0.2%
inhibition [6]: 3.2%
inhibition [7]: 26%
residual binding, % of control [8]: 4.9%
level, % of control [9]: 64%
residual binding, % of control [10]: 100%
inhibition [11]: 100%
inhibition [12]: 40%
inhibition [13]: 9.5%
residual binding, % of control [14]: 0%
inhibition [15]: 76%
residual binding, % of control [16]: 0.1%
level, % of control [17]: 29%
residual binding, % of control [18]: 59%
residual binding, % of control [19]: 0.8%
residual binding, % of control [20]: 83%
level, % of control [21]: 0.25%
residual binding, % of control [22]: 94%
residual binding, % of control [23]: 0%
residual binding, % of control [24]: 0.5%
inhibition [25]: 67%
inhibition [26]: 28%
residual binding, % of control [27]: 90%
residual binding, % of control [28]: 35%
inhibition [29]: 85%
inhibition [30]: 48%
residual binding, % of control [31]: 100%
residual binding, % of control [32]: 7.2%
residual binding, % of control [33]: 32%
inhibition [34]: 13%
inhibition [35]: 34%
inhibition [36]: 0%
inhibition [37]: 97%
inhibition [38]: 97%
level, % of control [39]: 31%
inhibition [40]: 12%
residual binding, % of control [41]: 2%
residual binding, % of control [42]: 0.1%
residual binding, % of control [43]: 0.15%
residual binding, % of control [44]: 0.15%

CCN1CCN(Cc2ccc(NC(=O)c3ccc(C)c(C#Cc4cccnc4)c3)cc2C(F)(F)F)CC1
residual binding, % of control [1]: 85%
% of control [2]: 87%
inhibition [3]: 72%
inhibition [4]: 4%
inhibition [5]: 0%
inhibition [6]: 11%
inhibition [7]: 53%
residual binding, % of control [8]: 4%
level, % of control [9]: 72%
residual binding, % of control [10]: 100%
inhibition [11]: 100%
inhibition [12]: 42%
inhibition [13]: 40%
residual binding, % of control [14]: 0%
inhibition [15]: 76%
residual binding, % of control [16]: 0.75%
level, % of control [17]: 21%
residual binding, % of control [18]: 75%
residual binding, % of control [19]: 1.6%
residual binding, % of control [20]: 100%
level, % of control [21]: 0.35%
residual binding, % of control [22]: 70%
residual binding, % of control [23]: 0.05%
residual binding, % of control [24]: 0.5%
inhibition [25]: 88%
inhibition [26]: 47%
residual binding, % of control [27]: 95%
residual binding, % of control [28]: 77%
inhibition [29]: 100%
inhibition [30]: 85%
residual binding, % of control [31]: 100%
residual binding, % of control [32]: 18%
residual binding, % of control [33]: 15%
inhibition [34]: 56%
inhibition [35]: 46%
inhibition [36]: 0.15%
inhibition [37]: 100%
inhibition [38]: 88%
level, % of control [39]: 52%
inhibition [40]: 41%
residual binding, % of control [41]: 7.4%
residual binding, % of control [42]: 0.15%
residual binding, % of control [43]: 0.1%
residual binding, % of control [44]: 0.4%
